Results published in patent publication US20210322545A1 (priority 2016, published 2021).

Test system: cancer cell lines
Assay type: cell-based

Row | Substance | synergy with SMC using recombinant cytokines
1 | IFNα | recapitulated
2 | IFNγ | recapitulated
